Experimental data reported in US10723707B2, “Heterocyclic substituted 2-amino quinazoline derivatives for the treatment of viral infections” (JANSSEN SCIENCES IRELAND UNLIMITED COMPANY, priority 2012, dated 2020).

What was measured:
Type in all cases: cell-based
human TLR7 = target: T1, human TLR7 (Homo sapiens, UniProt Q9NYK1); assay: TLR7 cellular NFκB-luc reporter assay in transiently transfected HEK293 cells; conditions: lowest effective concentration, 6 hours incubation
T1 construct: expressed in transfected cells; host or cells: HEK293
T1 sequence (Q9NYK1 27-1049): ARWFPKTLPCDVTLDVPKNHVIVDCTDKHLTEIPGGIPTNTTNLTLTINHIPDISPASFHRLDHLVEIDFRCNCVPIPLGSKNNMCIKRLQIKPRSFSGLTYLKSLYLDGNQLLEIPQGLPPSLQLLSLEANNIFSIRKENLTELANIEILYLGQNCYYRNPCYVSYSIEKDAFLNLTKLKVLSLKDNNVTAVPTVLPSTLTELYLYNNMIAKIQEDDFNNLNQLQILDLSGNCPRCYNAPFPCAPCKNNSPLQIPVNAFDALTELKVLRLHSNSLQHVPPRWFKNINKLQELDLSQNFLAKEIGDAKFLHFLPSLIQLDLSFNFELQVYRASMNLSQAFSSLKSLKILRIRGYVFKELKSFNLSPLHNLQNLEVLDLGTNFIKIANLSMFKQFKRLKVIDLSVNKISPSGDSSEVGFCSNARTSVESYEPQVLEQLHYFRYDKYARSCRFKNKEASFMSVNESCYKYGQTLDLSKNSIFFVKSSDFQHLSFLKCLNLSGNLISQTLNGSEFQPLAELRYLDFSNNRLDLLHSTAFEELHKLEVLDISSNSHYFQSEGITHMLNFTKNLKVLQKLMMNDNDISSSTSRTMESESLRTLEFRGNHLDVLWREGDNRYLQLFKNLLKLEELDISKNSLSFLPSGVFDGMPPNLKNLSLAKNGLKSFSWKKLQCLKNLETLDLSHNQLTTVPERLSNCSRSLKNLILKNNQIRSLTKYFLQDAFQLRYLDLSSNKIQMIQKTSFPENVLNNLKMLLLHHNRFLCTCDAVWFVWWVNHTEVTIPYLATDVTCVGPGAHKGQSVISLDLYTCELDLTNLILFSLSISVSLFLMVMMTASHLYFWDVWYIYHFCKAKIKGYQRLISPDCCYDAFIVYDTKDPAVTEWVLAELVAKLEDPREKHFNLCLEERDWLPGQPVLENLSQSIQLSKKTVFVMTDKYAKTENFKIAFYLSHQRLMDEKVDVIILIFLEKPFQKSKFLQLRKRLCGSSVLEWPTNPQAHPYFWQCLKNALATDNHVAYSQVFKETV
Method: (§1) The ability of compounds to activate human TLR7 and/or TLR8 was assessed in a cellular reporter assay using HEK293 cells transiently transfected with a TLR7 or TLR8 expression vector and NFκB-luc reporter construct.
(§2) Briefly, HEK293 cells were grown in culture medium (DMEM supplemented with 10% FCS and 2 mM Glutamine). For transfection of cells in 15 cm dishes, cells were detached with Trypsin-EDTA, transfected with a mix of CMV-TLR7 or TLR8 plasmid (1700 ng), NFκB-luc plasmid (850 ng) and a transfection reagent and incubated for 48 h at 37° C. in a humidified 5% CO2 atmosphere. Transfected cells were then washed in PBS, detached with Trypsin-EDTA and resuspended in medium to a density of 1.25×10^5 cells/mL. Forty microliters of cells were then dispensed into each well in 384-well plates, where 200 nL of compound in 100% DMSO was already present. Following 6 hours incubation at 37° C., 5% CO2, the luciferase activity was determined by adding 15 μL of Steady Lite Plus substrate (Perkin Elmer) to each well and readout performed on a ViewLux ultraHTS microplate imager (Perkin Elmer). Dose response curves were generated from measurements performed in quadruplicates. Lowest effective concentrations (LEC) values, defined as the concentration that induces an effect which is at least two fold above the standard deviation of the assay, were determined for each compound.

human TLR8 = target: T2, human TLR8 (Homo sapiens, UniProt Q9NR97); assay: TLR8 cellular NFκB-luc reporter assay in transiently transfected HEK293 cells; conditions: lowest effective concentration, 6 hours incubation
T2 construct: expressed in transfected cells; host or cells: HEK293
T2 sequence (Q9NR97 27-1041): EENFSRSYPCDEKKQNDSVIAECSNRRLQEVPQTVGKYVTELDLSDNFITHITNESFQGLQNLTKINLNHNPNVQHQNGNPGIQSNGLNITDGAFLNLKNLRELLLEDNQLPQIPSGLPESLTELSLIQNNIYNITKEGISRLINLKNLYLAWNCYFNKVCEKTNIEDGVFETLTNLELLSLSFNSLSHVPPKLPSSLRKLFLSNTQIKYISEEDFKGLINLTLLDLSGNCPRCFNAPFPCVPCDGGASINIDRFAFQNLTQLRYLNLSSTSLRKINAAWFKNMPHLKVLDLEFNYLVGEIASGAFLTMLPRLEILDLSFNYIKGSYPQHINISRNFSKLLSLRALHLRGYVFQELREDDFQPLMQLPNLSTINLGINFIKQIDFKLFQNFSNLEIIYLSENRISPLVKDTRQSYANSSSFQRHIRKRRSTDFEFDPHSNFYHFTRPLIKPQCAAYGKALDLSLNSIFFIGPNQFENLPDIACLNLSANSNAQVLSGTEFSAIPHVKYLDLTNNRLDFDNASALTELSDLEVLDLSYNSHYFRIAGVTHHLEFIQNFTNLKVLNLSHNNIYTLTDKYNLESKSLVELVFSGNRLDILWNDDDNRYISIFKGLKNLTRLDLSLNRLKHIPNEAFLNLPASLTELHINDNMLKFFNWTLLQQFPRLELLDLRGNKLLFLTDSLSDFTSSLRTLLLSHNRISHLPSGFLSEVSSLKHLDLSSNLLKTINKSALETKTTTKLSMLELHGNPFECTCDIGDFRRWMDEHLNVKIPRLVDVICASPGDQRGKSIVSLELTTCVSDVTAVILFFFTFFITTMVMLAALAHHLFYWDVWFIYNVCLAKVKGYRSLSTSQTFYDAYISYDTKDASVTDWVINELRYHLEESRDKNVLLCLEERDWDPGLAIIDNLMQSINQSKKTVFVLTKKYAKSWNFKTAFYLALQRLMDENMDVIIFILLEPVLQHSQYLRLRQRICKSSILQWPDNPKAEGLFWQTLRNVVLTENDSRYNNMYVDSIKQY
Method: as §1, §2

[1] = system: interferon-stimulated responsive elements (ISRE); assay: Activation of ISRE promoter elements in HEK-ISREluc cells by conditioned media from PBMC; conditions: Homo sapiens, compound concentration applied to PBMCs, supernatant transferred to HEK-ISREluc cells, 24 hours, read-out: HEK-ISRE luc (LEC)
Method: The potential of compounds to induce IFN-I was also evaluated by measuring the activation of interferon-stimulated responsive elements (ISRE) by conditioned media from PBMC. The ISRE element of sequence GAAACTGAAACT (SEQ ID: 1) is highly responsive to the STAT1-STAT2-IRF9 transcription factor, activated upon binding of IFN-I to their receptor IFNAR (Clontech, PT3372-5W). The plasmid pISRE-Luc from Clontech (ref. 631913) contains 5 copies of this ISRE element, followed by the firefly luciferase ORF. A HEK293 cell line stably transfected with pISRE-Luc (HEK-ISREluc) was established to profile the conditioned PBMC cell culture media.
Briefly, PBMCs were prepared from buffy coats of at least two donors using a standard Ficoll centrifugation protocol. Isolated PBMCs were resuspended in RPMI medium supplemented with 10% human AB serum and 2×10^5 cells/well were dispensed into 384-well plates containing compounds (70 μL total volume). After overnight incubation, 10 μL of supernatant was transferred to 384-well plates containing 5×10^3 HEK-ISREluc cells/well in 30 μL (plated the day before). Following 24 hours of incubation, activation of the ISRE elements was measured by assaying luciferase activity using 40 μL/well Steady Lite Plus substrate (Perkin Elmer) and measured with ViewLux ultraHTS microplate imager (Perkin Elmer). The stimulating activity of each compound on the HEK-ISREluc cells was reported as LEC value, defined as the compound concentration applied to the PBMCs resulting in a luciferase activity at least two fold above the standard deviation of the assay. The LEC in turn indicates the degree of ISRE activation on transfer of a defined amount of PBMC culture medium. Recombinant interferon α-2a (Roferon-A) was used as a standard control compound.

Row | Human TLR 7 (LEC) (human TLR7) [µM] | Human TLR 8 (LEC) (human TLR8) [µM] | SMILES | minimal effective concentration [1] [µM]
1 | 0.94 | >25 | COc1cccc2nc(N)nc(N[C@H](C)c3ccccn3)c12 (single isomer, unassigned) [Compound 2] | 0.49
2 | 0.42 | 12.3 | COc1cccc2nc(N)nc(N[C@H](C)c3nccs3)c12 (single isomer, unassigned) [Compound 10] | 0.11
3 | 0.76 | >25 | COc1cccc2nc(N)nc(N[C@H](c3ccccn3)C(F)(F)F)c12 (single isomer, unassigned) [Compound 3] | 0.47
4 | 0.63 | 9.0 | Cc1cc(CNc2nc(N)nc3cccc(CO)c23)no1 [Compound 30] | 0.14
5 | 0.11 | 1.74 | Cc1cc(CNc2nc(N)nc3cccc(C)c23)no1 [Compound 19] | 0.051
6 | 8.24 | >25 | CNC(=O)c1ccc2c(N[C@H](C)c3ccccn3)nc(N)nc2c1 (single isomer, unassigned) [Compound 27] | 5.04
7 | 2.44 | 9.14 | COc1cccc2nc(N)nc(N[C@H](C)c3cnn(C)c3)c12 (single isomer, unassigned) [Compound 16] | 0.55
8 | 14.7 | >25 | CNC(=O)c1ccc2c(NC(C)c3ccccn3)nc(N)nc2c1 (stereo not drawn) [Compound 22] | 2.2
